Here are results for two compounds from patent US4622417A, “L-aminodicarboxylic-(O-cycloalkyl)-L-aminocarboxylate alkyl ester sweeteners” (General Foods Corporation, priority 1984, dated 1986).

For assay [1] the following is noted: as reported in the literature; cited from earlier work.
In another assay the test system is panel of tasters. Nature of the assay: Sensory evaluation of sweetness: taste panel matches aqueous solutions of the compound to sucrose standard solutions (sucrose equivalency). The assay is classed as in vivo. Conditions: 0.05% concentration of compound. The text has this:
A taste procedure for determination of sweetness merely involves the determination of sucrose equivalency. Sucrose equivalence for sweeteners are readily determined. The amount of a sweetener that is equivalent to a given weight percent sucrose can be determined by having a panel of tasters taste solutions of a sweetener at known concentrations and match its sweetness to standard solutions of sucrose. The following sensory evaluations were obtained by a panel of experts using known weight percent aqueous solutions of the above compound matched to sucrose standard solutions as previously described.

Each structure is given as a SMILES string. Peptide text beside a SMILES is read from it. * marks the point of attachment. tBu = CC(C)(C)*

On to `COC(=O)[C@H](COC(C)(C)C)NC(=O)[C@@H](N)CC(=O)O` [t-butyl, L-aspartyl-O-t-butyl-L-serine methyl ester, reference compound] (H-Asp-Ser(tBu)-OMe), for which the “Sucrose Equivalent (Table 2, sweetness values of alkyl ethers)” value in assay [1] is 140. In the assay with panel of tasters, the “Sweetness ratio (Compound:Sucrose)” value was found to be 120. Further, the “Sucrose Equivalent” value in the assay with panel of tasters (aqueous solution) is reported as 6%.
In the case of `CCC(C)(C)OC[C@H](NC(=O)[C@@H](N)CC(=O)O)C(=O)OC` [tert. C5 H11, L-aspartyl-O-t-amyl-L-serine methyl ester], in assay [1], the “Sucrose Equivalent (Table 2, sweetness values of alkyl ethers)” value is 230.
